# Measured values published in patent publication US20030050242A1, “Protein polymerization inhibitors and methods of use” (priority 1999, published 2003).
# Read-outs that look alike come from different tables or passages of the source. Marks after values point to notes of the source that are not given here. Ends that are not written are not given here. Peptide text beside a SMILES is read from it.
# Key:
# [1] = target: viral capsid protein (p24) of HIV-2 (HIV-2)
# [2] = target: viral capsid protein (p24) of SIV (SIV)
# HIV-2 = experiment: viral infection assay in H9 cells, reverse transcriptase (RT) activity in supernatant; type: cell-based; details: for effect on HIV-2 infection, in words: summary of the experiments in H9 cells; for Day 7 RT HIV-2 / Day 10 RT HIV-2: H9 cells, 100 μM
# Method: (§1) Next, the ability of peptide agents to inhibit viral infection was evaluated. Accordingly, the peptide agents listed in Table 1 were used in several viral (e.g., HIV-1, HIV-2, and SIV) infection assays. […] Once inhibitory tripeptides were identified, more specific assays were conducted to determine the effect of varying concentrations of the selected tripeptides and combination treatments (e.g., the use of more than one modified tripeptide in combination).
# (§2) To monitor the replication of virus, reverse transcriptase (RT) activity in the supernatants was assayed using a commercially available Lenti-RT activity kit. (Cavidi Tech, Uppsala, Sweden). The amount of RT was determined with the aid of a regression line of standards. […] Syncytium formation was also monitored by microscopic examination.
# (§3) (Cavidi Tech). The amount of RT was determined with the aid of a regression line of standards.
# SIV = experiment: as above; type: cell-based; details: for effect on SIV infection, in words: summary of the experiments in H9 cells; for Day 7 RT SIV / Day 10 RT SIV: H9 cells, 100 μM
# Method: as §1, §2, §3
# HIV-1 [3] = details: summary of Experiments 1-6
# Method: as §1
# HIV-1 [4] = details: H9 cells, 100 μM, pos/neg
# Method: as §1, §2
# HIV-1 [5] = details: H9 cells, 100 μM
# Method: Next, the ability of peptide agents to inhibit viral infection was evaluated. Accordingly, the peptide agents listed in Table 1 were used in several viral (e.g., HIV-1, HIV-2, and SIV) infection assays. The efficiency of HIV-1, HIV-2, and SIV infection was monitored by reverse transcriptase activity, the concentration of p24 protein in the cell supernatent, and by microscopic evaluation of HIV-1 syncytia formation. In initial experiments, several modified tripeptides were screened for the ability to inhibit HIV-1, HIV-2, and SIV infection in H9 cells.
# In Experiments 1 and 2, approximately 200,000H9 cells were infected with HIV-1, HIV-2 or SIV at 25 TCID50 to test the inhibitory effect of the following synthesized tripeptides LKA-NH2, ILK-NH2, GPQ-NH2, GHK-NH2, GKG-NH2, ACQ-NH2, CQG-NH2, ARV-NH2, KAR-NH2, HKA-NH2, GAT-NH2, KAL-NH2, and GPG-NH2. Accordingly, the H9 cells were resuspended with or without the different peptides (approximately 100 μM) in 1 ml of RPMI 1640 medium supplemented with 10% (v/v) heat-inactivated fetal bovine serum (FBS), penicillin (100 u/ml), and streptomycin (100 u/ml), all available through GIBCO, and Polybrene (2 μg/ml), available through Sigma. Thereafter, viruses were added at 25 TCID50 in a volume of 20-30%1. Cells were incubated with virus at 37° C. for 1 hr then pelleted at 170× g for 7 minutes. The cells were then washed three times in RPMI medium without peptides at room temperature and pelleted at 170× g for 7 minutes, as above. After the final wash, the cells were resuspended in RPMI culture medium in a 24-well plate (Costar corporation) and kept at 37° C. in 5% CO2 with humidity.
# Culture supernatants were collected and analyzed when the medium was changed at 4, 7, 10, and 14 days post infection. To monitor the replication of virus, reverse transcriptase (RT) activity in the supernatants was assayed using a commercially available Lenti-RT activity kit. […] The amount of RT was determined with the aid of a regression line of standards. The results are presented as absorbance values (OD) and higher absorbance indicates a higher protein concentration and greater viral infection. Syncytium formation was also monitored by microscopic examination.
# In Experiment 3, (Table 5), approximately 200,000H9 cells were infected with HIV-1, HIV-2 or SIV at 25 TCID50 to test the inhibitory effect of different concentrations of peptides GPG-NH2, GKG-NH2 and CQG-NH2 and combinations of these peptides (the indicated concentration corresponds to the concentration of each tripeptide). As above, H9 cells were resuspended with or without the different peptides at varying concentrations in 1 ml of RPMI 1640 medium supplemented with 10% (v/v) heat-inactivated fetal bovine serum (FBS), penicillin (100 u/ml), and streptomycin (lOOu/ml), and Polybrene (2 μg/ml). Thereafter, viruses were added at 25 TCID50 in a volume of 20-30 μ. Cells were incubated with the indicated virus at 37° C. for 1 hr then pelleted at 170× g for 7 minutes. The cells were then washed three times in RPMI medium without peptides at room temperature and pelleted at 170× g for 7 minutes, as above. After the final wash, the cells were resuspended in RPMI culture medium in a 24-well plate (Costar corporation) and kept at 37° C. in 5% CO2 with humidity.
# Culture supernatants were collected when the medium was changed at 4, 7, and 11 days post infection. As above, the replication of each virus was monitored by detecting reverse transcriptase (RT) activity in the supernatants using the Lenti-RT activity kit.
# [6] = target: major capsid protein (p24) of HIV-1 (HIV-1, UniProt P04591); experiment: cell-based or functional assay
# [7] = Experiment 1, higher OD = greater infection
Molecule,"reverse transcriptase (RT) activity in the supernatants, Day 10 RT (OD) [1]","reverse transcriptase (RT) activity in the supernatants, Day 10 RT (OD) [2]","effect on HIV-1 infection, in words (HIV-1 [3])",Day 7 RT HIV-2 (HIV-2; Experiment 1),Day 10 RT HIV-2 (HIV-2; Experiment 1),Day 7 RT HIV-2 (HIV-2; Experiment 2),Day 10 RT HIV-2 (HIV-2; Experiment 2),Day 7 RT SIV (SIV; Experiment 1),Day 10 RT SIV (SIV; Experiment 1),Day 7 RT SIV (SIV; Experiment 2),Day 10 RT SIV (SIV; Experiment 2),HIV-1 Syncytia (HIV-1 [4]; Experiment 1),HIV-1 Syncytia (HIV-1 [4]; Experiment 2),Day 10 RT HIV-1 (HIV-1 [5]; Experiment 1),Day 7 RT HIV-1 (HIV-1 [5]; [7]),Day 7 RT HIV-1 (HIV-1 [5]; Experiment 2),Day 10 RT HIV-1 (HIV-1 [5]; Experiment 2),other results
ILK-NH2 (peptide),2.79 OD,2.25 OD,–,–,–,–,–,–,–,–,–,–,–,–,–,–,–,–
"NCCCC[C@H](NC(=O)CN)C(=O)NCC(N)=O [GKG-NH2, glycyl-lysyl-glycine amide] (H-Gly-Lys-Gly-NH2)",–,–,inhibited and/or prevented HIV-1 infection,–,–,–,–,–,–,–,–,–,–,–,–,–,–,"effect on HIV-2 infection, in words (HIV-2): inhibit or prevent HIV-2 and SIV infection; effect on SIV infection, in words (SIV): inhibit or prevent HIV-2 and SIV infection"
Lys-Ala-Leu (Lys-Ala-Leu-NH2) [KAL-NH2],–,–,failed to prevent infection,3.372 OD,2.749 OD,1.757 OD,2.383 OD,1.091 OD,2.524 OD,0.511 OD,2.663 OD,pos,pos,1.995 OD,0.246 OD,0.999 OD,2.791 OD,–
Lys-Ala-Arg (Lys-Ala-Arg-NH2) [KAR-NH2],–,–,–,3.419 OD,2.640 OD,1.904 OD,2.742 OD,0.266 OD,1.722 OD,1.034 OD,2.672 OD,pos,pos,2.779 OD,0.380 OD,0.753 OD,2.928 OD,–
Iso-Leu-Lys (Ile-Leu-Lys-NH2) [ILK-NH2],–,–,–,3.467 OD,2.791 OD,1.692 OD,2.557 OD,3.180 OD,2.255 OD,0.515 OD,2.632 OD,pos,pos,2.033 OD,0.365 OD,0.581 OD,2.950 OD,–
Leu-Lys-Ala (Leu-Lys-Ala-NH2) [LKA-NH2],–,–,did not prevent HIV infection,3.649 OD,2.769 OD,1.689 OD,2.637 OD,3.577 OD,2.452 OD,0.724 OD,2.797 OD,pos,pos,2.429 OD,0.568* OD,0.894* OD,2.989 OD,–
Gly-Lys-Gly-NH2 (peptide),0.147 OD,0.099 OD,–,–,–,–,–,–,–,–,–,–,–,–,–,–,–,–
Gly-His-Lys (Gly-His-Lys-NH2) [GHK-NH2],–,–,failed to prevent infection and syncytia formation,3.522 OD,2.931 OD,1.936 OD,2.418 OD,0.097 OD,2.384 OD,0.396 OD,2.394 OD,pos,pos,2.151 OD,0.289 OD,0.829 OD,3.013 OD,–
cystyl-glutaminyl-glycine amide [CQG-NH2],–,–,inhibited and/or prevented HIV-1 infection,–,–,–,–,–,–,–,–,–,–,–,–,–,–,"effect on HIV-2 infection, in words (HIV-2): inhibit or prevent HIV-2 and SIV infection; effect on SIV infection, in words (SIV): inhibit or prevent HIV-2 and SIV infection"
Ala-Cys-Gln (Ala-Cys-Gln-NH2) [ACQ-NH2],–,–,did not prevent HIV infection,3.418 OD,2.753 OD,1.661 OD,2.505 OD,1.241 OD,2.746 OD,0.612 OD,2.606 OD,pos,pos,0.904 OD,0.117 OD,0.606 OD,2.831 OD,–
Ala-Arg-Val (Ala-Arg-Val-NH2) [ARV-NH2],–,–,failed to prevent infection,3.380 OD,3.003 OD,2.237 OD,2.628 OD,0.210 OD,1.172 OD,0.212 OD,3.004 OD,pos,pos,1.528 OD,0.156 OD,0.618 OD,2.829 OD,–
ARV-NH2 (peptide),3 OD,1.17 OD,–,–,–,–,–,–,–,–,–,–,–,–,–,–,–,–
Gly-Ala-Thr (Gly-Ala-Thr-NH2) [GAT-NH2],–,–,failed to prevent infection and syncytia formation,3.461 OD,2.835 OD,1.707 OD,2.565 OD,0.892 OD,2.343 OD,0.572 OD,2.776 OD,pos,pos,1.565 OD,0.116 OD,0.776 OD,2.800 OD,–
KAR-NH2 (peptide),2.64 OD,1.72 OD,–,–,–,–,–,–,–,–,–,–,–,–,–,–,–,–
KAL-NH2 (peptide),2.75 OD,2.52 OD,–,–,–,–,–,–,–,–,–,–,–,–,–,–,–,–
ACQ-NH2 (peptide),2.75 OD,2.75 OD,–,–,–,–,–,–,–,–,–,–,–,–,–,–,–,–
Cys-Gln-Gly-NH2 (peptide),0.296 OD,0.11 OD,–,–,–,–,–,–,–,–,–,–,–,–,–,–,–,–
His-Lys-Ala (His-Lys-Ala-NH2) [HKA-NH2],–,–,did not prevent HIV infection,3.408 OD,2.669 OD,1.678 OD,2.560 OD,0.416 OD,2.520 OD,0.455 OD,2.623 OD,pos,pos,2.546 OD,0.312 OD,1.081 OD,2.794 OD,–
GHK-NH2 (peptide),2.93 OD,2.38 OD,–,–,–,–,–,–,–,–,–,–,–,–,–,–,–,–
Gly-Pro-Gln (Gly-Pro-Gln-NH2) [GPQ-NH2],–,–,did not prevent HIV infection,3.692 OD,2.734 OD,1.511 OD,2.382 OD,1.542 OD,2.176 OD,0.574 OD,2.319 OD,pos,pos,1.965 OD,0.204 OD,0.884 OD,2.848 OD,–
GAT-NH2 (peptide),2.83 OD,2.34 OD,–,–,–,–,–,–,–,–,–,–,–,–,–,–,–,–
LKA-NH2 (peptide),2.77 OD,2.45 OD,–,–,–,–,–,–,–,–,–,–,–,–,–,–,–,–
GPQ-NH2 (peptide),2.73 OD,2.18 OD,–,–,–,–,–,–,–,–,–,–,–,–,–,–,–,–
HKA-NH2 (peptide),2.67 OD,2.52 OD,–,–,–,–,–,–,–,–,–,–,–,–,–,–,–,–
Gly-Lys-Gly-NH2 [Gly-Lys-Gly-NH2],–,–,–,–,–,–,–,–,–,–,–,–,–,–,–,–,–,"reverse transcriptase (RT) activity in the supernatants, Day 10 RT (OD) [6]: 0.074 OD"
Gly-His-Lys-NH2 [GHK-NH2],–,–,–,–,–,–,–,–,–,–,–,–,–,–,–,–,–,"reverse transcriptase (RT) activity in the supernatants, Day 10 RT (OD) [6]: 2.15 OD"
Gly-Pro-Gln-NH2 [GPQ-NH2],–,–,–,–,–,–,–,–,–,–,–,–,–,–,–,–,–,"reverse transcriptase (RT) activity in the supernatants, Day 10 RT (OD) [6]: 1.97 OD"
Leu-Lys-Ala-NH2 [LKA-NH2],–,–,–,–,–,–,–,–,–,–,–,–,–,–,–,–,–,"reverse transcriptase (RT) activity in the supernatants, Day 10 RT (OD) [6]: 2.43 OD"
Ile-Leu-Lys-NH2 [ILK-NH2],–,–,–,–,–,–,–,–,–,–,–,–,–,–,–,–,–,"reverse transcriptase (RT) activity in the supernatants, Day 10 RT (OD) [6]: 2.03 OD"
